≈ marks a conversion by molar mass, not a printed value.
Tests used:
A549 = test: Cytotoxicity against human A549 cells; type: cell-based
Staphylococcus aureus [1] = test: Antibacterial activity against methicillin-sensitive Staphylococcus aureus ATCC 29213 by agar method; type: functional
Enterococcus faecalis [2] = test: Antibacterial activity against vancomycin-resistant Enterococcus faecalis ATCC 51299 by agar method; type: functional
Enterococcus faecalis [3] = test: Antibacterial activity against Vancomycin-sensitive Enterococcus faecalis ATCC 29212 by agar method; type: functional
Staphylococcus aureus [4] = test: Antibacterial activity against methicillin-resistant Staphylococcus aureus ATCC 33591 by agar method; type: functional
[5] = system: Staphylococcus epidermidis; test: Antibacterial activity against methicillin-resistant Staphylococcus epidermidis 16-5 by agar method; type: functional
Acinetobacter baumannii = test: Antibacterial activity against carbapenem-resistant Acinetobacter baumannii 16-33 by agar method; type: functional
Escherichia coli [6] = test: Antibacterial activity against ESBLs positive Escherichia coli ATCC 35218 by agar method; type: functional
[7] = system: Staphylococcus epidermidis; test: Antibacterial activity against methicillin-sensitive Staphylococcus epidermidis ATCC 12228 by agar method; type: functional
Escherichia coli [8] = test: Antibacterial activity against NDM-1 positive Escherichia coli ATCC 2469 by agar method; type: functional
Escherichia coli [9] = test: Antibacterial activity against ESBLs negative Escherichia coli ATCC 25922 by agar method; type: functional

Row | SMILES | IC50 (A549) | MIC (Staphylococcus aureus [1]) | MIC (Enterococcus faecalis [2]) | MIC (Enterococcus faecalis [3]) | MIC (Staphylococcus aureus [4]) | MIC [5] | MIC (Acinetobacter baumannii) | MIC (Escherichia coli [6]) | MIC [7] | MIC (Escherichia coli [8]) | MIC (Escherichia coli [9])
1 | O=C(/C=C/c1ccc2c(C(F)(F)F)cccc2n1)c1ccncc1 | 45.4 µM | 1 µg/mL (≈ 3.05 µM) | > 128 µg/mL | > 128 µg/mL | 1 µg/mL (≈ 3.05 µM) | 4 µg/mL (≈ 12.2 µM) | 128 µg/mL (≈ 390 µM) | > 128 µg/mL | 2 µg/mL (≈ 6.09 µM) | > 128 µg/mL | > 128 µg/mL
2 | O=C(/C=C/c1ccc2ccc(C(F)(F)F)cc2n1)c1cccnc1 | 9.8 µM | 1 µg/mL (≈ 3.05 µM) | 4 µg/mL (≈ 12.2 µM) | 4 µg/mL (≈ 12.2 µM) | 1 µg/mL (≈ 3.05 µM) | 2 µg/mL (≈ 6.09 µM) | > 32 µg/mL | > 32 µg/mL | 1 µg/mL (≈ 3.05 µM) | > 32 µg/mL | > 32 µg/mL
3 | O=C(/C=C/c1ccccn1)c1ccc2ccc(C(F)(F)F)cc2n1 | 11.2 µM | 4 µg/mL (≈ 12.2 µM) | > 32 µg/mL | 32 µg/mL (≈ 97.5 µM) | 2 µg/mL (≈ 6.09 µM) | 4 µg/mL (≈ 12.2 µM) | > 32 µg/mL | > 32 µg/mL | 2 µg/mL (≈ 6.09 µM) | > 32 µg/mL | > 32 µg/mL
4 | O=C(/C=C/c1ccc2ncccc2c1)c1ccccn1 |  | 8 µg/mL (≈ 30.7 µM) | 32 µg/mL (≈ 123 µM) | 32 µg/mL (≈ 123 µM) | 8 µg/mL (≈ 30.7 µM) | 8 µg/mL (≈ 30.7 µM) | 128 µg/mL (≈ 492 µM) | > 128 µg/mL | 8 µg/mL (≈ 30.7 µM) | > 128 µg/mL | > 128 µg/mL
5 | O=C(/C=C/c1cccnc1)c1ccc2ccc(C(F)(F)F)cc2n1 |  | > 32 µg/mL | > 32 µg/mL | > 32 µg/mL | 32 µg/mL (≈ 97.5 µM) | > 32 µg/mL | > 32 µg/mL | > 32 µg/mL | > 32 µg/mL | > 32 µg/mL | > 32 µg/mL
6 | O=C(/C=C/c1ccc2c(C(F)(F)F)cccc2n1)c1ccccn1 | 43.1 µM | 1 µg/mL (≈ 3.05 µM) | > 128 µg/mL | > 128 µg/mL | 1 µg/mL (≈ 3.05 µM) | 2 µg/mL (≈ 6.09 µM) | 128 µg/mL (≈ 390 µM) | > 128 µg/mL | 2 µg/mL (≈ 6.09 µM) | > 128 µg/mL | > 128 µg/mL
7 | COCOc1ccc(C(=O)/C=C/c2ccc3ccccc3n2)cc1OCOC |  | 8 µg/mL (≈ 21.1 µM) | > 128 µg/mL | > 128 µg/mL | 8 µg/mL (≈ 21.1 µM) | 8 µg/mL (≈ 21.1 µM) | > 128 µg/mL | > 128 µg/mL | 4 µg/mL (≈ 10.5 µM) | > 128 µg/mL | > 128 µg/mL
8 | O=C(/C=C/c1ccc2ccccc2n1)c1ccncc1 |  | 32 µg/mL (≈ 123 µM) | 32 µg/mL (≈ 123 µM) | 32 µg/mL (≈ 123 µM) | 32 µg/mL (≈ 123 µM) | 32 µg/mL (≈ 123 µM) | > 32 µg/mL | > 32 µg/mL | 32 µg/mL (≈ 123 µM) | > 32 µg/mL | > 32 µg/mL
9 | O=C(/C=C/c1cccnc1)c1ccc2ccccc2c1 |  | 8 µg/mL (≈ 30.9 µM) | > 128 µg/mL | > 128 µg/mL | 8 µg/mL (≈ 30.9 µM) | 16 µg/mL (≈ 61.7 µM) | > 128 µg/mL | > 128 µg/mL | 4 µg/mL (≈ 15.4 µM) | > 128 µg/mL | > 128 µg/mL
10 | O=C(/C=C/c1ccc2ncccc2c1)c1ccncc1 |  | 8 µg/mL (≈ 30.7 µM) | 32 µg/mL (≈ 123 µM) | 32 µg/mL (≈ 123 µM) | 8 µg/mL (≈ 30.7 µM) | 16 µg/mL (≈ 61.5 µM) | 128 µg/mL (≈ 492 µM) | > 128 µg/mL | 16 µg/mL (≈ 61.5 µM) | > 128 µg/mL | > 128 µg/mL
11 | O=C(/C=C/c1ccc2ccccc2n1)c1ccc(O)c(O)c1 |  | 32 µg/mL (≈ 110 µM) | > 64 µg/mL | > 64 µg/mL | 32 µg/mL (≈ 110 µM) | 32 µg/mL (≈ 110 µM) | > 64 µg/mL | > 64 µg/mL | 16 µg/mL (≈ 54.9 µM) | > 64 µg/mL | > 64 µg/mL
12 | O=C(/C=C/c1ccc2ccc(C(F)(F)F)cc2n1)c1ccc(O)c(O)c1 |  | 32 µg/mL (≈ 89.1 µM) | > 128 µg/mL | > 128 µg/mL | 32 µg/mL (≈ 89.1 µM) | 16 µg/mL (≈ 44.5 µM) | > 128 µg/mL | > 128 µg/mL | 16 µg/mL (≈ 44.5 µM) | > 128 µg/mL | > 128 µg/mL
13 | COCOc1ccc(C(=O)/C=C/c2ccc3ccc(C(F)(F)F)cc3n2)cc1OCOC |  | > 64 µg/mL | > 64 µg/mL | > 64 µg/mL | > 64 µg/mL | > 64 µg/mL | > 64 µg/mL | > 64 µg/mL | > 64 µg/mL | > 64 µg/mL | > 64 µg/mL
14 | O=C(/C=C/c1cnc2ccccc2c1)c1cccnc1 |  | 16 µg/mL (≈ 61.5 µM) | 32 µg/mL (≈ 123 µM) | 32 µg/mL (≈ 123 µM) | 32 µg/mL (≈ 123 µM) | 32 µg/mL (≈ 123 µM) | 128 µg/mL (≈ 492 µM) | > 128 µg/mL | 16 µg/mL (≈ 61.5 µM) | > 128 µg/mL | > 128 µg/mL
15 | O=C(/C=C/c1ccc2ccccc2c1)c1ccncc1 |  | > 128 µg/mL | > 128 µg/mL | > 128 µg/mL | > 128 µg/mL | > 128 µg/mL | > 128 µg/mL | > 128 µg/mL | > 128 µg/mL | > 128 µg/mL | > 128 µg/mL
16 | O=C(/C=C/c1ccc2ccccc2n1)c1ccc2c(c1)OCO2 |  | > 128 µg/mL | > 128 µg/mL | > 128 µg/mL | > 128 µg/mL | > 128 µg/mL | > 128 µg/mL | > 128 µg/mL | > 128 µg/mL | > 128 µg/mL | > 128 µg/mL
17 | O=C(/C=C/c1ccc2ccc(C(F)(F)F)cc2n1)c1ccccn1 | 10.2 µM | 1 µg/mL (≈ 3.05 µM) | 128 µg/mL (≈ 390 µM) | > 128 µg/mL | 2 µg/mL (≈ 6.09 µM) | 4 µg/mL (≈ 12.2 µM) | 128 µg/mL (≈ 390 µM) | > 128 µg/mL | 4 µg/mL (≈ 12.2 µM) | > 128 µg/mL | > 128 µg/mL
18 | O=C(/C=C/c1ccc2ccc(C(F)(F)F)cc2n1)c1ccc2c(c1)OCO2 |  | > 128 µg/mL | > 128 µg/mL | > 128 µg/mL | > 128 µg/mL | > 128 µg/mL | > 128 µg/mL | > 128 µg/mL | > 128 µg/mL | > 128 µg/mL | > 128 µg/mL
19 | O=C(/C=C/c1cnc2ccccc2c1)c1ccccn1 |  | 8 µg/mL (≈ 30.7 µM) | 32 µg/mL (≈ 123 µM) | 32 µg/mL (≈ 123 µM) | 8 µg/mL (≈ 30.7 µM) | 8 µg/mL (≈ 30.7 µM) | 128 µg/mL (≈ 492 µM) | > 128 µg/mL | 8 µg/mL (≈ 30.7 µM) | > 128 µg/mL | > 128 µg/mL
20 | O=C(/C=C/c1ccc2ncccc2c1)c1cccnc1 |  | 16 µg/mL (≈ 61.5 µM) | 32 µg/mL (≈ 123 µM) | 32 µg/mL (≈ 123 µM) | 16 µg/mL (≈ 61.5 µM) | 8 µg/mL (≈ 30.7 µM) | 128 µg/mL (≈ 492 µM) | > 128 µg/mL | 8 µg/mL (≈ 30.7 µM) | > 128 µg/mL | > 128 µg/mL
21 | C[n+]1ccc(C(=O)/C=C/c2ccc3ccccc3c2)cc1.[I-] |  | 128 µg/mL | > 128 µg/mL | > 128 µg/mL | 64 µg/mL | 128 µg/mL | > 128 µg/mL | > 128 µg/mL | 128 µg/mL | > 128 µg/mL | > 128 µg/mL
22 | O=C(/C=C/c1ccc2ccccc2c1)c1cccnc1 |  | > 128 µg/mL | > 128 µg/mL | > 128 µg/mL | > 128 µg/mL | > 128 µg/mL | > 128 µg/mL | > 128 µg/mL | > 128 µg/mL | > 128 µg/mL | > 128 µg/mL

Reference: ChEMBL document CHEMBL4814028, “Design, synthesis, and antibacterial evaluation of PFK-158 derivatives as potent agents against drug-resistant bacteria” (Bioorg Med Chem Lett, 2021)
